Key:
[1] = test system: non-transgenic soybean plants; assay: Greenhouse, post-V3 applications of different auxin-like herbicides, visual % injury; assay type: in vivo
Method: (§1) This was carried out by applying various concentrations of commercially available formulations of other auxin-like herbicides such as 2,4-D (Helena, Collierville, Tenn.), MCPA (Agriliance, St. Paul, Minn.), triclopyr (GARLON 3A; Dow Elanco, Indianapolis, Ind.), clopyralid (STINGER; Dow Elanco, Indianapolis, Ind.), picloram (TORDON 22K; Dow Elanco, Indianapolis, Ind.), or Banvel or CLARITY (BASF, Raleigh, N.C.) to DMO containing plant tissues or plants.
(§2) Transgenic soybean plants were obtained by Agrobacterium-mediated transformation of soybean explants with a DMO-encoding polynucleotide as described above for the events designated Events 1-4. A non-transgenic line was used as a control.
(§3) Applications were made when plants had reached V-3 stage.
(§4) Data were collected using a palm top computer and analyzed using standard statistical methods. The results shown in Table 10 clearly indicate tolerance of transgenic soybean to other auxin-like herbicides such as 2,4-D and MCPA relative to the non-transgenic line.

[2] = test system: transgenic soybean plants with DMO-encoding polynucleotide (Events 1-4); assay: as above; assay type: in vivo; settings: for tolerance of DMO polynucleotide containing soybean: post-V3 application
Method: as §1, §2, §3, §4

MARESTAIL (CA) Resistant = assay: Control of marestail by dicamba or glyphosate, treated at rosette leaf stage; assay type: in vivo, Conyza canadensis; settings: glyphosate formulation 2100 g/ha
Source text: (§5) Marestail is one of the major weeds in a crop field. Marestail is effectively controlled by glyphosate, but the development of methods for controlling this common weed with other herbicides is important to minimize opportunities for herbicide tolerance to develop.

MARESTAIL (KY) Resistant = assay: as above; assay type: in vivo, Conyza canadensis; settings: glyphosate formulation 2100 g/ha
Source text: as §5

Marestail Resistant (KY) = assay: Dicamba, glyphosate and their combination on marestail; assay type: in vivo, Conyza canadensis; settings: glyphosate formulation 200 g/ha

Row | SMILES | % injury at 21 DAT ([1]; 280 g ae/ha post-V3) | % injury at 21 DAT ([1]; 561 g ae/ha post-V3) | % injury at 21 DAT ([1]; 1120 g ae/ha post-V3) | % injury at 21 DAT ([2]; Event 1, 280 g ae/ha post-V3) | % injury at 21 DAT ([2]; Event 1, 561 g ae/ha post-V3) | % injury at 21 DAT ([2]; Event 1, 1120 g ae/ha post-V3) | % injury at 21 DAT ([2]; Event 2, 280 g ae/ha post-V3) | % injury at 21 DAT ([2]; Event 2, 561 g ae/ha post-V3) | % injury at 21 DAT ([2]; Event 2, 1120 g ae/ha post-V3) | % injury at 21 DAT ([2]; Event 3, 280 g ae/ha post-V3) | % injury at 21 DAT ([2]; Event 3, 561 g ae/ha post-V3) | % injury at 21 DAT ([2]; Event 3, 1120 g ae/ha post-V3) | % injury at 21 DAT ([2]; Event 4, 280 g ae/ha post-V3) | % injury at 21 DAT ([2]; Event 4, 561 g ae/ha post-V3) | % injury at 21 DAT ([2]; Event 4, 1120 g ae/ha post-V3) | tolerance of DMO polynucleotide containing soybean [2] | % injury at 14 DAT ([1]; 280 g ae/ha post-V3) | % injury at 14 DAT ([1]; 561 g ae/ha post-V3) | % injury at 14 DAT ([1]; 1120 g ae/ha post-V3) | % injury at 14 DAT ([2]; Event 1, 280 g ae/ha post-V3) | also measured
1 | O=C(O)COc1ccc(Cl)cc1Cl [2,4-D, (2,4-dichlorophenoxy)acetic acid] | 86.8% | 100.0% | 100.0% | 58.3% | 75.0% | 100.0% | 64.2% | 94.7% | 100.0% | 40.0% | 85.0% | 100.0% | 45.8% | 84.2% | 100.0% | tolerant to low levels | – | – | – | – | –
2 | O=C(O)c1nc(Cl)ccc1Cl [Clopyralid, 3,6-dichloro-2-pyridinecarboxylic acid] | – | – | – | – | – | – | – | – | – | – | – | – | – | – | – | – | 99.3% | 100.0% | 100.0% | 99.2% | % injury at 14 DAT ([2]; Event 1, 561 g ae/ha post-V3): 100.0%; % injury at 14 DAT ([2]; Event 1, 1120 g ae/ha post-V3): 100.0%; % injury at 14 DAT ([2]; Event 2, 280 g ae/ha post-V3): 98.2%; % injury at 14 DAT ([2]; Event 2, 561 g ae/ha post-V3): 99.7%; % injury at 14 DAT ([2]; Event 2, 1120 g ae/ha post-V3): 100.0%; % injury at 14 DAT ([2]; Event 3, 280 g ae/ha post-V3): 99.3%; % injury at 14 DAT ([2]; Event 3, 561 g ae/ha post-V3): 100.0%; % injury at 14 DAT ([2]; Event 3, 1120 g ae/ha post-V3): 100.0%; % injury at 14 DAT ([2]; Event 4, 280 g ae/ha post-V3): 99.7%; % injury at 14 DAT ([2]; Event 4, 561 g ae/ha post-V3): 100.0%; % injury at 14 DAT ([2]; Event 4, 1120 g ae/ha post-V3): 100.0%
3 | Cc1cc(Cl)ccc1OCC(=O)O [MCPA, (4-chloro-2-methylphenoxy)acetic acid] | 93.0% | 98.3% | 100.0% | 72.5% | 99.3% | 100.0% | 55.0% | 95.0% | 99.7% | 55.0% | 95.8% | 100.0% | 88.3% | 98.8% | 100.0% | tolerant to low levels | – | – | – | – | –
4 | Nc1c(Cl)c(Cl)nc(C(=O)O)c1Cl [Picloram, 4-amino-3,5,6-trichloro-2-pyridinecarboxylic acid] | – | – | – | – | – | – | – | – | – | – | – | – | – | – | – | – | 99.3% | 100.0% | 100.0% | 99.7% | % injury at 14 DAT ([2]; Event 1, 561 g ae/ha post-V3): 100.0%; % injury at 14 DAT ([2]; Event 1, 1120 g ae/ha post-V3): 100.0%; % injury at 14 DAT ([2]; Event 2, 280 g ae/ha post-V3): 99.3%; % injury at 14 DAT ([2]; Event 2, 561 g ae/ha post-V3): 100.0%; % injury at 14 DAT ([2]; Event 2, 1120 g ae/ha post-V3): 100.0%; % injury at 14 DAT ([2]; Event 3, 280 g ae/ha post-V3): 99.3%; % injury at 14 DAT ([2]; Event 3, 561 g ae/ha post-V3): 99.7%; % injury at 14 DAT ([2]; Event 3, 1120 g ae/ha post-V3): 100.0%; % injury at 14 DAT ([2]; Event 4, 280 g ae/ha post-V3): 99.3%; % injury at 14 DAT ([2]; Event 4, 561 g ae/ha post-V3): 100.0%; % injury at 14 DAT ([2]; Event 4, 1120 g ae/ha post-V3): 100.0%
5 | O=C(O)CNCP(=O)(O)O [glyphosate, N-phosphonomethylglycine] | – | – | – | – | – | – | – | – | – | – | – | – | – | – | – | – | – | – | – | – | % Injury (21 DAT) (MARESTAIL (CA) Resistant): about 77%; % Injury (21 DAT) (MARESTAIL (KY) Resistant): about 91%; % Injury (18 DAT) (Marestail Resistant (KY)): 6%

— patent US8629328B2 (Monsanto Technology LLC, priority 2006, dated 2014)
